Our source for the CC50 values is patent US12398124B2, “Pyrrolobenzodiazepine dimer prodrug and ligand-linker conjugate compound of the same” (priority 2017, dated 2025).

Common to all, as to assay: Cytotoxicity in vitro (cell proliferation inhibition, SRB dye)
What all share (format): cell-based, human
Background: In SRB staining, fixed cells bind dye roughly in proportion to their protein.

In one series the test system is SK-BR3 (HER2 positive). Particulars: SK-BR3 breast cancer cells. How it is done: (§1) The cell proliferation inhibitory activity of the drug and ADCs presented in the following Table 2 on cancer cell lines was measured. As the cancer cell lines, commercially available human breast cancer cell lines MCF-7 (HER2 negative to normal), SK-BR3 (HER2 positive), and JIMT-1 (HER2 positive) were used. MMAF-OMe was used as the drug and the ADCs in Table 1 were used as the ADC. Each of the cancer cell lines was seeded in a 96-well plate by from 5,000 to 13,000 per well for the 72 hour treatment group and from 1,500 to 3,000 per well for the 168 hour treatment group, incubated for 24 hours, and then treated with antibodies and ADCs at a concentration of from 0.0051 to 33.33 nM or from 0.0015 to 10.0 nM (three times serial dilutions) and drugs at a concentration of from 0.023 to 50 nM (three times serial dilutions). After 72/168 hours, the number of living cells was quantified using SRB (Sulforhodamine B) dye.

In the next series the test system is JIMT-1 (HER2 positive). Particulars: JIMT-1 breast cancer cells. How it is done: as §1
Series [1] has as its system MCF-7 (HER2 negative to normal). Particulars: MCF7 breast cancer cells. The procedure:
as §1

Read-outs that look alike come from different tables or passages of the source. Where a SMILES comes first, the peptide text is derived from it. [ ]: non-standard residue; d: D form. Dolaproine = CO[C@@H]([C@@H]1CCCN1)[C@@H](C)C(=O)O; Dil = CC[C@H](C)[C@H](NC)[C@@H](CC(=O)O)OC; NMeV = CN[C@H](C(=O)O)C(C)C

Take `CC[C@H](C)[C@@H]([C@@H](CC(=O)N1CCC[C@H]1[C@H](OC)[C@@H](C)C(=O)N[C@@H](Cc1ccccc1)C(=O)OC)OC)N(C)C(=O)[C@@H](NC(=O)[C@@H](NC)C(C)C)C(C)C` [MMAF-OMe] (H-[NMeV]V[Dil][Dolaproine]F-OMe): the CC50 (commonly the concentration giving 50% cytotoxicity) turned out to be 0.14 nM with SK-BR3 (HER2 positive) (72 hr treatment, read-out: CC50 (nM) SK-BR3 72 hr); 0.06 nM in the series on SK-BR3 (HER2 positive) (168 hr treatment, read-out: CC50 (nM) SK-BR3 168 hr); 0.14 nM in the series on JIMT-1 (HER2 positive) (72 hr treatment, read-out: CC50 (nM) JIMT-1 72 hr); 0.06 nM in the series with JIMT-1 (HER2 positive) (168 hr treatment, read-out: CC50 (nM) JIMT-1 168 hr); 0.84 nM in series [1] (72 hr treatment, read-out: CC50 (nM) MCF7 72 hr); 0.19 nM in series [1] (168 hr treatment, read-out: CC50 (nM) MCF7 168 hr).
